Columns and labels:
[1] = molecular target: T1, GSK3A (Homo sapiens, UniProt P49840); test: HotSpot radiometric […]-ATP kinase assay; type: biochemical
Target sequence in this assay (P49840 2-483): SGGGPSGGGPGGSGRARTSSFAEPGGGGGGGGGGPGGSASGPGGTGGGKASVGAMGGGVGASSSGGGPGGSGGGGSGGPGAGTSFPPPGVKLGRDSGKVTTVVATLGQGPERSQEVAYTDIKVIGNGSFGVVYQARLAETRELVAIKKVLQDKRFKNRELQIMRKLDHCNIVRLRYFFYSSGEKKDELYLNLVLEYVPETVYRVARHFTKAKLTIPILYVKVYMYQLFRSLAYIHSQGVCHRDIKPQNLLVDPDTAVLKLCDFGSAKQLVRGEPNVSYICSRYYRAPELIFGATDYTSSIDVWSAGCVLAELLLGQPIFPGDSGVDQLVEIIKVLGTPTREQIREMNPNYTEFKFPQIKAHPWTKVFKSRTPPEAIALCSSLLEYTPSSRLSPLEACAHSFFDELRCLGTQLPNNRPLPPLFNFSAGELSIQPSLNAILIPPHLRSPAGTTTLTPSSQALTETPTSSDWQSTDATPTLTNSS

[2] = molecular target: PARP1 (Homo sapiens, UniProt P09874); test: BPS PARP assay kit, biotin-NAD+ luminescence; type: biochemical; settings: read-out: % inhibition at 10 μM
[3] = molecular target: PARP2 (Homo sapiens, UniProt Q9UGN5); test: BPS PARP assay kit, biotin-NAD+ luminescence; type: biochemical; settings: read-out: % inhibition at 10 μM
[4] = molecular target: T1, GSK3A; test: biochemical; settings: read-out: % of control remaining
Target sequence in this assay (P49840 whole entry): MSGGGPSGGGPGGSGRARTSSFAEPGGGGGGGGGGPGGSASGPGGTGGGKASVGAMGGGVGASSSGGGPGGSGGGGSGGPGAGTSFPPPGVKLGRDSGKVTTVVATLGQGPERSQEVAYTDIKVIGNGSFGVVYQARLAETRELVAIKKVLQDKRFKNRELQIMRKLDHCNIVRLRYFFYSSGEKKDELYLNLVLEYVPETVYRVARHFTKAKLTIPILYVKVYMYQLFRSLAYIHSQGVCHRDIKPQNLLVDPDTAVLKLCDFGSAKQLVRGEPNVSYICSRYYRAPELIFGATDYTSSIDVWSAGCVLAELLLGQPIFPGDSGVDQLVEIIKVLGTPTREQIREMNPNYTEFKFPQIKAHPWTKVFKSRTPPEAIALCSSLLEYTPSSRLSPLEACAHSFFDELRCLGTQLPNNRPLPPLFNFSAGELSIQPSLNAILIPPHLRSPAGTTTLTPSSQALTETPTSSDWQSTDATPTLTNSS

[5] = molecular target: T2, PLK2 (Homo sapiens, UniProt Q9NYY3); test: HotSpot radiometric […]-ATP kinase assay; type: biochemical
[6] = molecular target: T3, GSK3B (Homo sapiens, UniProt P49841); test: HotSpot radiometric […]-ATP kinase assay; type: biochemical
[7] = molecular target: T2, PLK2; test: biochemical; settings: read-out: % of control remaining
[8] = molecular target: CSNK1E (Homo sapiens, UniProt P49674); test: biochemical; settings: read-out: % of control remaining
[9] = molecular target: T3, GSK3B; test: biochemical; settings: read-out: % of control remaining
[10] = molecular target: PLK2 (NanoLuc fusion, HEK293 cells) (Homo sapiens, UniProt Q9NYY3); test: NanoBRET target engagement, tracer displacement, intact cells; type: cell-based
[11] = molecular target: GSK3A (NanoLuc fusion, HEK293 cells) (Homo sapiens, UniProt P49840); test: as above; type: cell-based
[12] = molecular target: T2, PLK2; test: HotSpot radiometric […]-ATP kinase assay; type: biochemical; settings: remaining activity, mean of two replicates
[13] = molecular target: T3, GSK3B; test: HotSpot radiometric […]-ATP kinase assay; type: biochemical; settings: remaining activity, mean of two replicates
[14] = molecular target: T1, GSK3A; test: HotSpot radiometric […]-ATP kinase assay; type: biochemical; settings: remaining activity, mean of two replicates
Target sequence in this assay (P49840 2-483): as the sequence (P49840 2-483) above

T3 sequence (P49841 whole entry): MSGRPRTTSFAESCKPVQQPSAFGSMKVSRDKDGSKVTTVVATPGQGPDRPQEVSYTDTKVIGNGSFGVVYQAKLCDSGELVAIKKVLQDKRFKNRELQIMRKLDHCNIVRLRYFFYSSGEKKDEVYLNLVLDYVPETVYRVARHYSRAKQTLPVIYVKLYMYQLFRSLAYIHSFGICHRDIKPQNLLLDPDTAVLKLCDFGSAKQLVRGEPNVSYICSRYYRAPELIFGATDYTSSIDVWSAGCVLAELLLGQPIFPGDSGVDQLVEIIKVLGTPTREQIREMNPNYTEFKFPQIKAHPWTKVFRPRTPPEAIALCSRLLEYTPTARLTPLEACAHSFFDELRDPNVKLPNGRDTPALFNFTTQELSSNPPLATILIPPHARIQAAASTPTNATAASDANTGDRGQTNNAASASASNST
T2 sequence (Q9NYY3 whole entry): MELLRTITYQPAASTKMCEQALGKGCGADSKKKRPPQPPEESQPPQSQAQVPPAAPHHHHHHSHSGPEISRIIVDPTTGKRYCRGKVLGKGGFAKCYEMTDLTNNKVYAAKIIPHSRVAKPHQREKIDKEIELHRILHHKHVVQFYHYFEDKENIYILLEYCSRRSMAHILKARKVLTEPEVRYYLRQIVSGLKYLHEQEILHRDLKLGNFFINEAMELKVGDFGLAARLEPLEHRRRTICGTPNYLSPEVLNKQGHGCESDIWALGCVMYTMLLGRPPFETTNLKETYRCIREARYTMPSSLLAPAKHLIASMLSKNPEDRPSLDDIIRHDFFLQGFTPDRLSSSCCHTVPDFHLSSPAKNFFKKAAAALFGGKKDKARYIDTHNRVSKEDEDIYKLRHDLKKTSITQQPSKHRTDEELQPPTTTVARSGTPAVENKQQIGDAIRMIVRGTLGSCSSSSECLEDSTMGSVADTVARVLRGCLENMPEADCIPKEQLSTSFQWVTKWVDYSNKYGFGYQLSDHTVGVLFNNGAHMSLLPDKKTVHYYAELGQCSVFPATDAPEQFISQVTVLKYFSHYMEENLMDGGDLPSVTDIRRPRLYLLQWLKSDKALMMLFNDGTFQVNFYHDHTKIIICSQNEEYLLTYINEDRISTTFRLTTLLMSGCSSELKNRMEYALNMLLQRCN
CSNK1E, sequence (P49674 whole entry): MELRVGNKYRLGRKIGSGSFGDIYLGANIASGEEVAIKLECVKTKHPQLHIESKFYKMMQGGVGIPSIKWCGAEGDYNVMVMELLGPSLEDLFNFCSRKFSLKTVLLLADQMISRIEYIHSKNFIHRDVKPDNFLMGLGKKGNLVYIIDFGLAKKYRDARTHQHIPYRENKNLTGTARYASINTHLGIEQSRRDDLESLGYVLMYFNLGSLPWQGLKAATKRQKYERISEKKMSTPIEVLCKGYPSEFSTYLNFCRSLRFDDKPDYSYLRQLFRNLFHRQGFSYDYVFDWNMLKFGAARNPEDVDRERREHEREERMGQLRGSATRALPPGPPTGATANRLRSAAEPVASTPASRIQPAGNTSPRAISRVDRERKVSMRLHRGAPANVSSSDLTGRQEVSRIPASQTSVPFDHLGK
PLK2 (NanoLuc fusion, HEK293 cells), sequence (Q9NYY3 whole entry, the tested form may be a part): as the sequence (Q9NYY3 whole entry) above
GSK3A (NanoLuc fusion, HEK293 cells), sequence (P49840 2-483): as the sequence (P49840 2-483) above
PARP2, sequence (Q9UGN5 whole entry): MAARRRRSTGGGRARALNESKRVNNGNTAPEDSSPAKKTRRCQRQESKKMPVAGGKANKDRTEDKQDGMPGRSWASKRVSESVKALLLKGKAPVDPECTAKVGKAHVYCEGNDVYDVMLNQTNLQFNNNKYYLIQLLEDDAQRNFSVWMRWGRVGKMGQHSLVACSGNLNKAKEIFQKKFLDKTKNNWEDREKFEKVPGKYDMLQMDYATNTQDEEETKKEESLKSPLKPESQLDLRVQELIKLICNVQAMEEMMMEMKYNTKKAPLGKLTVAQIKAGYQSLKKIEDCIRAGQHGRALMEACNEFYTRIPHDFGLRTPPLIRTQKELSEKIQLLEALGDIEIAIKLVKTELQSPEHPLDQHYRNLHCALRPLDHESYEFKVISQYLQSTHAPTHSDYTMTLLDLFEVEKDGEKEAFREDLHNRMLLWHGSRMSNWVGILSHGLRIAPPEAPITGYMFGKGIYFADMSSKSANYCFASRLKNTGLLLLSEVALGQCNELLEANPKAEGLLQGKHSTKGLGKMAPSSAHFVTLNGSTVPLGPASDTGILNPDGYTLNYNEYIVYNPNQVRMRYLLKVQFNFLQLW
PARP1, sequence (P09874 2-1014): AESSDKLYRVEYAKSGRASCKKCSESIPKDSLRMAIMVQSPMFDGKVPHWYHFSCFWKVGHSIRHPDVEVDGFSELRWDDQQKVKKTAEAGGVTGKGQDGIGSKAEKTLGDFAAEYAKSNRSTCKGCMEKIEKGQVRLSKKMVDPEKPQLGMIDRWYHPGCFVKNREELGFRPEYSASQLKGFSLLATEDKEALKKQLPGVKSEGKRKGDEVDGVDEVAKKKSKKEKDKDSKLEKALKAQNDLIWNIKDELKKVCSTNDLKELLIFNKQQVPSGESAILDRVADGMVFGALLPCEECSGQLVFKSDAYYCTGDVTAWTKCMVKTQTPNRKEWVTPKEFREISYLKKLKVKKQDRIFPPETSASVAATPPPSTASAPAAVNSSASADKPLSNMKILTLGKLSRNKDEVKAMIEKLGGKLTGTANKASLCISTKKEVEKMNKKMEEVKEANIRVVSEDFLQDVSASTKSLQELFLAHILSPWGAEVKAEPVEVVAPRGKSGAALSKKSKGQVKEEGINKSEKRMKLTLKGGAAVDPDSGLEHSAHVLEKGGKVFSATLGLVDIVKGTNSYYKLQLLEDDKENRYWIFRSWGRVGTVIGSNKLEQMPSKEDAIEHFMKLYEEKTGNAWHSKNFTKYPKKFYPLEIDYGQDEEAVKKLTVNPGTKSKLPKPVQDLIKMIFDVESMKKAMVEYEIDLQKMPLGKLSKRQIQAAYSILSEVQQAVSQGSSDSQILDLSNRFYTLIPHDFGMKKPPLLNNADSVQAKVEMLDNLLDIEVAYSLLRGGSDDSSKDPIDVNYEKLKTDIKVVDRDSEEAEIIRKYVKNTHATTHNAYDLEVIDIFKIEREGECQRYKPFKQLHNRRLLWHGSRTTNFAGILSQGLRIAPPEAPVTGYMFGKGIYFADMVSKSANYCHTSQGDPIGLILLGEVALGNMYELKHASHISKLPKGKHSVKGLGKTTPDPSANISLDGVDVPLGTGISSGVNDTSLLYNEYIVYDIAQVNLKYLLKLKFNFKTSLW

SMILES	IC50 [1] [nM]	inhibition at 10 µM [2] [%]	inhibition at 10 µM [3] [%]	remaining activity at 1 µM [4] [%]	IC50 [5] [nM]	IC50 [6] [nM]	remaining activity at 1 µM [7] [%]	remaining activity at 1 µM [8] [%]	remaining activity at 1 µM [9] [%]	EC50 [10] [nM]	EC50 [11] [nM]	Enzyme activity (%) at 1 μM [12] [%]	Enzyme activity (%) at 1 μM [13] [%]	Enzyme activity (%) at 1 μM [14] [%]
O=C(O)c1ccc(-c2[nH]c3cc(F)cc4c3c2CCNC4=O)cc1 [M324]	579	100	100	34.4	591	2000	40.7	102	63.1	5080	15000	–	–	–
CNCc1ccc(-c2[nH]c3cc(F)cc4c3c2CCNC4=O)cc1 [rucaparib]	–	–	–	–	–	–	–	103	–	–	–	88.95	35.38	74.15

Source: article doi:10.1101/2022.11.22.517505v1 (biorxiv, 2022)
